Measured values as given in PubChem BioAssay (NCI).
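Briefly, cells in 96-well plates were exposed to five compound concentrations for 48 h, and endpoints were estimated by linear interpolation. GI50 marks 50% less growth. TGI denotes the concentration required for complete inhibition of growth.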

Legend:
Test in all cases: inhibition of tumour cell growth, NCI panel, 48 h
[1] = test system: SNB-75 CNS
[2] = test system: SF-268 CNS
[3] = test system: SN12C renal
[4] = test system: MDA-MB-231 breast
[5] = test system: A549 NSCLC
[6] = test system: BT-549 breast
[7] = test system: K-562 leukemia
[8] = test system: EKVX NSCLC
[9] = test system: TK-10 renal
[10] = test system: COLO 205 colon

## CCn1c(-c2nonc2N)nc2c(C#CCN)ncc(OCCCN)c21
[1]
  GI50: > 24.2 µM
  TGI: > 25 µM
[2]
  GI50: > 25 µM
  TGI: > 25 µM
[3]
  GI50: > 25 µM
  TGI: > 25 µM
[4]
  GI50: > 25 µM
  TGI: > 25 µM
[5]
  GI50: > 25 µM
  TGI: > 25 µM
[6]
  GI50: > 25 µM
  TGI: > 25 µM
[7]
  GI50: > 25 µM
  TGI: > 25 µM
[8]
  GI50: > 25 µM
  TGI: > 25 µM
[9]
  GI50: > 25 µM
  TGI: > 25 µM
[10]
  GI50: > 25 µM
  TGI: > 25 µM

## NC(CO)Cc1cnc[nH]1 (stereo not drawn)
[1]
  GI50: > 100 µM
  TGI: > 100 µM
[2]
  GI50: > 100 µM
  TGI: > 100 µM
[3]
  GI50: > 100 µM
  TGI: > 100 µM
[4]
  TGI: > 100 µM
[5]
  GI50: > 100 µM
  TGI: > 100 µM
[6]
  TGI: > 100 µM
[7]
  GI50: > 100 µM
  TGI: > 100 µM
[8]
  GI50: > 100 µM
  TGI: > 100 µM
[9]
  GI50: > 100 µM
  TGI: > 100 µM
[10]
  GI50: > 100 µM
  TGI: > 100 µM

## CN1CCN(Cc2ccc(C(=O)Nc3cncc(C#Cc4cnc(N)c5ccccc45)c3)cc2C(F)(F)F)CC1
[1]
  GI50: 3.42 µM
  TGI: 12.3 µM
[2]
  GI50: 4.42 µM
  TGI: 17.2 µM
[3]
  GI50: 1.8 µM
  TGI: 3.47 µM
[4]
  GI50: 1.37 µM
  TGI: 2.87 µM
[5]
  GI50: 1.94 µM
  TGI: 3.85 µM
[6]
  GI50: 12.7 µM
  TGI: 25.4 µM
[7]
  TGI: 1.15 µM
[8]
  GI50: 1.99 µM
  TGI: 6.06 µM
[9]
  GI50: 1.99 µM
  TGI: 3.74 µM
[10]
  GI50: 3.69 µM
  TGI: 13.3 µM

## COc1ccc(C(=O)Nc2ncc(Cc3ccc(Cl)cc3)s2)cc1
[1]
  GI50: 0.0424 µM
  TGI: > 100 µM
[2]
  GI50: 0.3 µM
  TGI: > 100 µM
[3]
  GI50: 0.0946 µM
  TGI: > 100 µM
[4]
  GI50: 0.176 µM
  TGI: 47.3 µM
[5]
  GI50: 0.0733 µM
  TGI: > 100 µM
[6]
  GI50: 1 µM
  TGI: > 100 µM
[7]
  GI50: 0.041 µM
  TGI: > 100 µM
[8]
  GI50: 0.26 µM
  TGI: > 100 µM
[9]
  GI50: 3.94 µM
  TGI: > 100 µM
[10]
  GI50: 0.0533 µM
  TGI: 2.29 µM

## N#CC(=C1SCS1)[N+](=O)[O-]
[1]
  GI50: 2.44 µM
  TGI: 8.76 µM
[2]
  GI50: 3.64 µM
  TGI: 20.1 µM
[3]
  GI50: 4.35 µM
  TGI: 18.4 µM
[4]
  GI50: 4.94 µM
  TGI: 20.4 µM
[5]
  GI50: 4 µM
  TGI: 40.6 µM
[6]
  GI50: 9.3 µM
  TGI: 23 µM
[7]
  GI50: 0.371 µM
  TGI: > 100 µM
[8]
  GI50: 12.4 µM
  TGI: 31.1 µM
[9]
  GI50: 3.68 µM
  TGI: 13.4 µM
[10]
  GI50: 1.41 µM
  TGI: 3.92 µM

## COC(=O)C(=O)CC(=O)CCn1ncc(Cl)c(Cl)c1=O
[1]
  TGI: 35.6 µM
[2]
  TGI: 21.4 µM
[3]
  TGI: 29.9 µM
[4]
  GI50: 7.88 µM
  TGI: 20.7 µM
[5]
  TGI: 36.5 µM
[6]
  GI50: 14.4 µM
  TGI: 27.7 µM
[7]
  TGI: 9.54 µM
[8]
  TGI: 33.8 µM
[9]
  TGI: > 85.5 µM
[10]
  TGI: 31.8 µM

## N#Cc1c(-c2cccs2)c2c(=S)[nH]c(=S)[nH]c2[nH]c1=S
[1]
  GI50: > 100 µM
  TGI: > 100 µM
[2]
  GI50: 32.4 µM
  TGI: 67.2 µM
[3]
  GI50: 43 µM
  TGI: > 100 µM
[4]
  GI50: 39 µM
  TGI: > 100 µM
[5]
  GI50: 28.9 µM
  TGI: > 100 µM
[6]
  GI50: 23.5 µM
  TGI: 56.2 µM
[7]
  GI50: 27.1 µM
  TGI: > 100 µM
[8]
  GI50: 20 µM
  TGI: 60.8 µM
[9]
  GI50: 90.7 µM
  TGI: > 100 µM
[10]
  GI50: 28.8 µM
  TGI: > 100 µM

## COc1cc(/C=C\[N+](=O)[O-])ccc1O
[1]
  GI50: 3.35 µM
  TGI: 17.2 µM
[2]
  GI50: 3.44 µM
  TGI: 12.8 µM
[3]
  GI50: 2.49 µM
  TGI: 7.74 µM
[4]
  GI50: 2.6 µM
  TGI: 8.94 µM
[5]
  GI50: 3.34 µM
  TGI: 12.7 µM
[6]
  GI50: 2.39 µM
  TGI: 6.51 µM
[7]
  GI50: 3.17 µM
  TGI: 10.8 µM
[8]
  GI50: 11.8 µM
  TGI: 24.6 µM
[9]
  GI50: 1.72 µM
  TGI: 3.41 µM
[10]
  GI50: 2.36 µM
  TGI: 5.74 µM

## C=C1C(O)C2CCC(C)(C)C(=O)C2=C(CC(C)C)C12CC2 (stereo not drawn)
[1]
  GI50: 93.1 µM
  TGI: > 100 µM
[2]
  GI50: 50.5 µM
  TGI: > 100 µM
[3]
  GI50: 63.8 µM
  TGI: > 100 µM
[4]
  GI50: 91.8 µM
  TGI: > 100 µM
[5]
  GI50: 93.3 µM
  TGI: > 100 µM
[6]
  GI50: > 100 µM
  TGI: > 100 µM
[7]
  GI50: 31.9 µM
  TGI: > 100 µM
[8]
  GI50: 78.7 µM
  TGI: > 100 µM
[9]
  GI50: 67.9 µM
  TGI: > 100 µM
[10]
  GI50: 22.7 µM
  TGI: 53.6 µM

## O=C(NNc1nc2c(F)cccc2n2cccc12)c1cnccn1
[1]
  GI50: 1.98 µM
  TGI: 41.6 µM
[2]
  GI50: 0.484 µM
  TGI: > 67.7 µM
[3]
  GI50: 0.602 µM
  TGI: 31.7 µM
[4]
  GI50: 0.834 µM
  TGI: 24.8 µM
[5]
  GI50: 0.466 µM
  TGI: 36 µM
[6]
  GI50: 0.671 µM
  TGI: 50.8 µM
[7]
  GI50: 0.478 µM
  TGI: > 100 µM
[8]
  GI50: 0.421 µM
  TGI: 30 µM
[9]
  GI50: 5.05 µM
  TGI: 60.9 µM
[10]
  GI50: 0.426 µM
  TGI: > 33.4 µM

## CC(CO)(CO)N=Cc1cc(I)cc(I)c1O
[1]
  TGI: 34.8 µM
[2]
  TGI: 36.5 µM
[3]
  TGI: 31.4 µM
[4]
  TGI: 38.7 µM
[5]
  TGI: > 100 µM
[6]
  TGI: 36.4 µM
[7]
  TGI: 83.5 µM
[8]
  TGI: 54.2 µM
[9]
  TGI: 84.2 µM
[10]
  TGI: 35.3 µM

## N/C(CC(=O)Nc1cc(C(F)(F)F)ccc1Cl)=N\O
[1]
  TGI: > 100 µM
[2]
  TGI: > 100 µM
[3]
  TGI: > 100 µM
[4]
  TGI: > 100 µM
[5]
  TGI: > 100 µM
[6]
  TGI: > 100 µM
[7]
  TGI: > 100 µM
[8]
  TGI: > 100 µM
[9]
  TGI: > 100 µM
[10]
  TGI: > 100 µM

## Cc1cc([C@@H](C)Nc2ccccc2C(=O)O)c2nc(N3CCOCC3)cc(=O)n2c1
[1]
  GI50: 0.43 µM
  TGI: > 10 µM
[2]
  GI50: > 10 µM
  TGI: > 10 µM
[3]
  GI50: > 10 µM
  TGI: > 10 µM
[4]
  GI50: > 10 µM
  TGI: > 10 µM
[5]
  GI50: > 10 µM
  TGI: > 10 µM
[6]
  GI50: 1.17 µM
  TGI: > 10 µM
[7]
  GI50: > 10 µM
  TGI: > 10 µM
[8]
  GI50: > 10 µM
  TGI: > 10 µM
[9]
  GI50: > 10 µM
  TGI: > 10 µM
[10]
  GI50: > 10 µM
  TGI: > 10 µM

## NC(N)=N/N=C(/c1ccccc1)c1ccc(F)cc1
[1]
  GI50: 0.183 µM
  TGI: 3.09 µM
[2]
  GI50: 0.543 µM
  TGI: 14.4 µM
[3]
  GI50: 0.817 µM
  TGI: 22.2 µM
[4]
  GI50: 0.649 µM
  TGI: 14 µM
[5]
  GI50: 0.512 µM
  TGI: > 34.6 µM
[6]
  GI50: 0.551 µM
  TGI: 2.85 µM
[7]
  GI50: 0.38 µM
  TGI: 27.7 µM
[8]
  GI50: 0.65 µM
  TGI: 36.5 µM
[9]
  GI50: 0.506 µM
  TGI: 18.4 µM
[10]
  GI50: 0.267 µM
  TGI: 0.841 µM

## COc1ccc(/C=C/C=C(/C#N)C(N)=S)cc1
[1]
  GI50: 29.7 µM
  TGI: 99.6 µM
[2]
  GI50: 28 µM
  TGI: > 100 µM
[3]
  GI50: 35.4 µM
  TGI: > 100 µM
[4]
  GI50: 26.9 µM
  TGI: 87.4 µM
[5]
  GI50: 33.1 µM
  TGI: > 100 µM
[6]
  GI50: 30.1 µM
  TGI: > 100 µM
[7]
  GI50: 29.9 µM
  TGI: > 100 µM
[8]
  GI50: 77.3 µM
  TGI: > 100 µM
[9]
  GI50: 37.6 µM
  TGI: > 100 µM
[10]
  GI50: 20.9 µM
  TGI: 50.7 µM

## N#Cc1c(NC(=O)c2cccc(C(F)(F)F)c2)sc2c1CCC(=O)C2
[1]
  GI50: 1.19 µM
  TGI: 3.13 µM
[2]
  GI50: 0.91 µM
  TGI: 5.9 µM
[3]
  GI50: 0.851 µM
  TGI: 4.05 µM
[4]
  GI50: 1.39 µM
  TGI: 3.31 µM
[5]
  GI50: 1.88 µM
  TGI: 6.03 µM
[6]
  GI50: 0.419 µM
  TGI: 2.06 µM
[7]
  GI50: 0.217 µM
[8]
  GI50: 1.67 µM
  TGI: 4.26 µM
[9]
  GI50: 0.543 µM
  TGI: 2.34 µM
[10]
  GI50: 0.289 µM
  TGI: 0.809 µM

## COc1cc(-n2cc(-c3ccc(Cl)c(Cl)c3)nc2SCc2ccccc2)cc(OC)c1OC
[1]
  GI50: > 100 µM
  TGI: > 100 µM
[2]
  GI50: > 100 µM
  TGI: > 100 µM
[3]
  GI50: > 100 µM
  TGI: > 100 µM
[4]
  GI50: > 100 µM
  TGI: > 100 µM
[5]
  GI50: > 100 µM
  TGI: > 100 µM
[6]
  GI50: > 100 µM
  TGI: > 100 µM
[7]
  GI50: > 100 µM
  TGI: > 100 µM
[8]
  GI50: > 100 µM
  TGI: > 100 µM
[9]
  GI50: > 100 µM
  TGI: > 100 µM
[10]
  GI50: > 100 µM
  TGI: > 100 µM

## COc1cc(C(=O)NC2c3ccccc3-c3ccccc32)c(N)cc1OCc1ccccc1
[1]
  GI50: 7.84 µM
  TGI: 30.7 µM
[2]
  GI50: 16.8 µM
  TGI: > 62.1 µM
[3]
  GI50: 11.4 µM
  TGI: 48.9 µM
[4]
  GI50: 17.2 µM
  TGI: 47.1 µM
[5]
  GI50: 17.9 µM
  TGI: > 100 µM
[6]
  GI50: 17 µM
  TGI: 42.2 µM
[7]
  GI50: 15.9 µM
  TGI: > 100 µM
[8]
  GI50: 5.28 µM
  TGI: 45 µM
[9]
  GI50: 26.2 µM
  TGI: 69.6 µM
[10]
  GI50: 63.9 µM
  TGI: > 100 µM
